Measurements: patent US8709392B2, “Cosmetic/dermatological compositions comprising naphthoic acid compounds and polyurethane polymers” (Galderma Research & Development, priority 2005, dated 2014)

Tests used:
[1] = tested on: skin of the back of RHINO FVB/N RJ-hr^rh mice (Rhino); test: Study of the comedolytic activity on Rhino mice; format: in vivo, mouse; conditions: for Change in weight of the Rhino mice (%) D19-D1, Mean: 50 μl topical daily for 18 days; for increase in transepidermal water loss (TWL), AUC: Rhino mice, after 18 days of topical treatment
Experimental: The present study is aimed at evaluating the comedolytic activity of the reference gel containing 0.1% adapalene and of two 0.1% adapalene formulations in gel form with a polyurethane polymer at different concentrations, and also their placebos, on the skin of the back of RHINO FVB/N RJ-hr^rh mice (Rhino) after repeated topical applications for 18 days.
The daily topical application (50 μl) of the test products is performed on the skin of the back of Rhino mice divided into seven groups (approximately 7-week-old mice) at a rate of one application per day for 18 days. The test products are:
The tolerance evaluation is made by clinical observation of the dorsal epidermis with the following observation parameters: oedema, erythema and squamae 3 times a week for 19 days.
The comedolytic activity is evaluated by measuring the transepidermal water loss (TWL) on days D4, D11 and D19, by measuring the thickness of the epidermis, by counting the number of comedones/cm and by weighing the animals on days D1, D4, D11 and D19.
The TWL quantifies the impairment in the skin barrier by measuring the gradient of water vapor that is established in a layer 10 mm thick above the surface of the skin.

[2] = tested on: skin of the ear of the BALB/c mouse; test: Tolerance study in BALB/c mice (ear thickness after repeated topical applications); format: in vivo
Experimental: The present study is for comparing the irritant power of a reference gel containing 0.1% adapalene with that of three 0.1% adapalene formulations in gel form containing a polyurethane polymer at various concentrations, and also placebos thereof, on the skin of the ear of the BALB/c mouse after repeated topical applications for 6 days.
The daily topical application (20 μl) of the test products is performed on the inner face of the ear of BALB/c mice divided into ten groups (female mice about 8 weeks old) at a rate of one application per day for 6 days. The test products are:
The evaluation is performed by measuring the thickness of the ear by means of the Oditest and by clinical observation of the animals from the 2nd to the 19th day.

Compound | Change in weight of the Rhino mice (%) D19-D1, Mean [1] | increase in transepidermal water loss (TWL), AUC [1] | irritant power ([2]; BALB/c mouse ear thickness kinetics D2-D19) | Increase in AUC versus placebo (%) ([2]; ear thickness AUC D2-D19, BALB/c mouse, relative to own placebo)
CC1(C)CCC(C)(C)c2cc(-c3cc4ccc(C(=O)O)cc4s3)ccc21 [2-(5,5,8,8-tetramethyl-5,6,7,8-tetrahydronaphthalen-2-yl)benzo[b]thiophene-6-carboxylic acid] | 10.4% | 332% |  | 
COc1ccc(-c2ccc3cc(C(=O)O)ccc3c2)cc1C12CC3CC(CC(C3)C1)C2 [acetone+0.1% (m/m) adapalene, 6-[3-(1-adamantyl)-4-methoxyphenyl]-2-naphthoic acid] | 9.2% | 299% | also irritant | 30%
